Source: patent publication US5756521A, “Chroman-2-ylmethylamino derivatives” (American Home Products Corporation, priority 1997, dated 1998)

Legend:
[1] = target: T1, dopamine autoreceptor (D2, 3H-quinpirole) (Rattus norvegicus, UniProt P61169); test: Dopamine autoreceptor affinity, 3H-quinpirole binding in homogenized rat striatal brain tissue; conditions: rat striatal brain tissue homogenate, read-out: IC50 (nM), D2, (Quin.)
T1 construct: homogenized rat striatal brain tissue; from tissue; host or cells: rat striatal brain tissue
Protocol: Affinity for the dopamine autoreceptor was established by a modification of the standard experimental test procedure of Seemen and Schaus, European Journal of Pharmacology 203: 105-109, 1991, wherein homogenized rat striatal brain tissue is incubated with ^3 H-quinpirole (Quin.) and various concentrations of test compound, filtered and washed and counted in a Betaplate scintillation counter.

dopamine D-2 receptor = target: T2, dopamine D-2 receptor (Rattus norvegicus, UniProt P61169); test: Dopamine D-2 receptor affinity, 3H-spiroperidol binding in homogenized limbic brain tissue
T2 construct: homogenized limbic brain tissue; from tissue
Protocol: High affinity for the dopamine D-2 receptor was established by the standard experimental test procedure of Fields, et al., Brain Res., 136, 578 (1977) and Yamamura et al., eds., Neurotransmitter Receptor Binding, Raven Press, N.Y. (1978) wherein homogenized limbic brain tissue is incubated with ^3 H-spiroperidol (Spiper.) and various concentrations of test compound, filtered and washed and shaken with Hydrofluor scintillation cocktail (National Diagnostics) and counted in a Packard 460 CD scintillation counter.

T2 sequence (P61169 whole entry): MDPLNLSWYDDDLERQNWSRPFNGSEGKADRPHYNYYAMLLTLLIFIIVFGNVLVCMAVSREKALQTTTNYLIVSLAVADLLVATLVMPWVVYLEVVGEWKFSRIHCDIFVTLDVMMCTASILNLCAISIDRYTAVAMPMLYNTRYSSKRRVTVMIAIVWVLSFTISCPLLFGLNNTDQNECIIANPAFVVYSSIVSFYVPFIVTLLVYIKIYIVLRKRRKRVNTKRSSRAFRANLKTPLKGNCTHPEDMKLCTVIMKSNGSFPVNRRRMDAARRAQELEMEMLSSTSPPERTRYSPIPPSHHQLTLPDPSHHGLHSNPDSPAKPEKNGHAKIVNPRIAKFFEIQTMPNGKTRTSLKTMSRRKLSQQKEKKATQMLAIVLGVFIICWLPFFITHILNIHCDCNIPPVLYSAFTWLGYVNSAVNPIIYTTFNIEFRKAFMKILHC
T1 sequence (P61169 whole entry): as above

IC50 [1]: 2.21 nM
IC50 (dopamine D-2 receptor; 3H-spiroperidol, limbic brain tissue homogenate, read-out: IC50 (nM), (Spiper.)): 1230 nM
ratio (dopamine D-2 receptor; ratio of IC50 (Spiper.) to IC50 (Quin.), LowAg/HighAg): 557
Structure (SMILES): Oc1ccc2c(c1)OC(CNCc1ccccn1)CC2 (stereo not drawn) [Example 1]
